Reference: patent US7736624B2, “Methods and compositions for diagnostic and therapeutic targeting of COX-2” (priority 2006, dated 2010)
Where two headings read alike, the source gives them in different places.

Assays:
[1] = target: T1, ovine COX-1 (Ovis aries, UniProt P05979); assay: IC50 determinations using purified enzymes (TLC assay), COX-1; type: biochemical; conditions: assayed against purified enzymes
T1 construct: can be purified from ovine seminal vesicles by standard procedures; from tissue; host or cells: ovine seminal vesicles
T1 sequence (P05979 25-600): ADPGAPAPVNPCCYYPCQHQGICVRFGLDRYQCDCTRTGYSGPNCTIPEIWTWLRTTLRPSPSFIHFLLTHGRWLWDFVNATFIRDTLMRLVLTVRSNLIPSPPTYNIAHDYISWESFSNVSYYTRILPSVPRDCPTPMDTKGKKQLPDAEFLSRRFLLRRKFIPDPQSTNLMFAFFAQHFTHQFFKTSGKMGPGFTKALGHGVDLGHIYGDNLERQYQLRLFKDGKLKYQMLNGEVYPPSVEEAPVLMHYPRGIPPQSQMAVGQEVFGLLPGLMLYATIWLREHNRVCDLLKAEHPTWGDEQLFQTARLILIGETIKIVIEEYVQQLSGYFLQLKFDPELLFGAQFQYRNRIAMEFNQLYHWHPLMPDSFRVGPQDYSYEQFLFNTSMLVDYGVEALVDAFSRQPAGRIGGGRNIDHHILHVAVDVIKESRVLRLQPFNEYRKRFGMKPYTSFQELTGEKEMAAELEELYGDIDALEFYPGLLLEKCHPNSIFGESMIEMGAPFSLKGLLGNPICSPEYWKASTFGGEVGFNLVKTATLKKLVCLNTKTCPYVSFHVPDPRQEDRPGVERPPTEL
Text: (§1) Those skilled in the art will appreciate that an evaluation of the selectivity and efficacy of binding of the NSAID derivative to the COX-2 enzyme, e.g., after the derivative is synthesized, can be desirable. […] One example of an in vitro screening method takes advantage of the fact that both human and murine recombinant COX-2 can be expressed and isolated in pure form from an Sf9 cell expression system. […] Alternatively, membrane preparations from outdated human platelets can provide a source of human COX-1. […] The reaction is stopped by the addition of ethanol/methanol/1 M citrate, pH 4.0 (30:4:1). The extracted products are separated by thin layer chromatography (TLC), which allows quantitation of total product formation as well as assessment of product distribution. This assay is useful to define IC50 values for inhibition of either enzyme, and to determine time-dependency of inhibition. It also provides information concerning changes in products formed as a result of inhibition.
(§2) Reactions were terminated by solvent extraction in Et2O/CH3OH/1 M citrate, pH 4.0 (30:4:1). The phases were separated by centrifugation at 2000 g for 5 minutes and the organic phase was spotted on a 20×20 cm TLC plate (Lieselgel 60, EMD Chemicals, Inc., Gibbstown, N.J., United States of America). The plate was developed in EtOAc/CH2Cl2/glacial AcOH (75:25:1) at 4° C. Radiolabeled prostanoid products were quantitatively determined with a radioactivity scanner available from Bioscan, Inc. (Washington, D.C., United States of America). The percentage of total products observed at different concentrations of the presently disclosed compositions was divided by the percentage of products observed for protein samples preincubated for the same amount of time with DMSO.

[2] = target: T2, COX-2 (Homo sapiens, UniProt P35354); assay: IC50 determinations using purified enzymes (TLC assay), COX-2; type: biochemical; set-up: made in house; host or cells: Sf9 insect cells
T2 sequence (P35354 18-604): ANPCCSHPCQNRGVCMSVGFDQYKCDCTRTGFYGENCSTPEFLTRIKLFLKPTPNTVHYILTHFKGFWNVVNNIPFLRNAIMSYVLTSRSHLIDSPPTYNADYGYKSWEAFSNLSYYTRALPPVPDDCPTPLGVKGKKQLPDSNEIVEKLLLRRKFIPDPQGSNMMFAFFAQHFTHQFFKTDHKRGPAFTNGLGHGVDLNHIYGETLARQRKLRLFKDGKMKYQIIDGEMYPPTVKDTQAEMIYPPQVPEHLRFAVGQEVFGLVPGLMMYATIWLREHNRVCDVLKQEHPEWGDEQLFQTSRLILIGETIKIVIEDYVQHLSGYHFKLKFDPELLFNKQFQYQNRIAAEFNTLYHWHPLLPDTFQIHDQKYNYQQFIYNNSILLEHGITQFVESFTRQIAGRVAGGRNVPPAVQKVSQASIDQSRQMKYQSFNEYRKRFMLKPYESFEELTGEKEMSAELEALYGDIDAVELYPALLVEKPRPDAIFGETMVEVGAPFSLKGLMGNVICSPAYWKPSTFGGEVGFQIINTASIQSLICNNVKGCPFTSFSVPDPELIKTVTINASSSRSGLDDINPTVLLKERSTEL
Text: as §1, §2

[3] = Table 3, assayed against purified enzymes, read-out: IC50 COX-2
[4] = purified enzyme, read-out: COX-2 IC50
[5] = Table 2, assayed against purified enzymes, read-out: IC50 COX-2

SMILES | IC50 ([1]; Table 3) [µM] | IC50 [2, 3] [µM] | other results
COc1ccc2c(c1)c(CC(=O)NCCNC(=O)/C=C(C)/C=C/C=C(C)/C=C/C1=C(C)CCCC1(C)C)c(C)n2C(=O)c1ccc(Cl)cc1 [Compound 27h] | – | – | IC50 ([1]; Table 1): > 4 µM; IC50 [2, 4]: 0.107 µM
CCCCNC(=O)Cc1c(C)n(C(=O)c2ccc(Cl)cc2)c2ccc(OC)cc12 [Compound 27nnn] | > 25 | > 25 | –
COc1ccc2c(c1)c(CC(=O)NCCCCNC(=O)CCCCCNC(=O)c1ccc(-c3c4ccc(=O)cc-4oc4cc(O)ccc34)c(C(=O)O)c1)c(C)n2C(=O)c1ccc(Cl)cc1 [Compound 27oo] | > 25 | > 25 | –
COc1ccc2c(c1)c(CC(=O)NCCCCOC(=O)CCC(=O)O[C@H]1c3cc4c(cc3[C@@H](c3cc(OC)c(OC)c(OC)c3)[C@H]3C(=O)OC[C@@H]31)OCO4)c(C)n2C(=O)c1ccc(Cl)cc1 [Compound 27p] | – | – | IC50 ([1]; Table 1): > 4 µM; IC50 [2, 4]: 0.147 µM
COc1ccc2c(c1)c(CC(=O)NCCCCNC(=O)c1ccc(-c3c4ccc(=O)cc-4oc4cc(O)ccc34)c(C(=O)O)c1)c(C)n2C(=O)c1ccc(Cl)cc1 [Compound 27pp] | > 25 | > 25 | –
CCN1C(=CC=CC=CC2=[N+](CCCCS(=O)(=O)[O-])c3ccc4ccccc4c3C2(C)C)C(C)(C)c2cc(CC(=O)NCCCCNC(=O)Cc3c(C)n(C(=O)c4ccc(Cl)cc4)c4ccc(OC)cc34)ccc21 [Compound 27qqq] | > 25 | 0.5 | –
COc1ccc2c(c1)c(CC(=O)NCCNC(=O)/C=C(C)/C=C/C=C(C)\C=C\C1=C(C)CCCC1(C)C)c(C)n2C(=O)c1ccc(Cl)cc1 [Compound 27s] | – | – | IC50 ([1]; Table 2): > 25 µM; IC50 [2, 5]: 0.388 µM
COc1ccc2c(c1)c(CC(=O)N1CCN(C(=O)c3ccc(C(=O)O)c(-c4c5ccc(=O)cc-5oc5cc(O)ccc45)c3)CC1)c(C)n2C(=O)c1ccc(Cl)cc1 [Compound 27tt] | > 25 | > 25 | –
COc1ccc2c(c1)c(CC(=O)Nc1ccc(S(=O)(=O)Nc3cc(OC)nc(OC)n3)cc1)c(C)n2C(=O)c1ccc(Cl)cc1 [Compound 27u] | – | – | IC50 [2, 5]: 0.148 µM
COc1ccc2c(c1)c(CC(=O)OCCN1CCN(CCCN3c4ccccc4Sc4ccc(Cl)cc43)CC1)c(C)n2C(=O)c1ccc(Cl)cc1 [Compound 27v] | – | – | IC50 ([1]; Table 2): > 25 µM; IC50 [2, 5]: 0.387 µM
COc1ccc2c(c1)c(CC(=O)NCCCCNC(=O)c1ccc(C(=O)[O-])c(-c3c4ccc(=[N+](C)C)cc-4oc4cc(N(C)C)ccc34)c1)c(C)n2C(=O)c1ccc(Cl)cc1 [Compound 27xx] | > 25 | > 25 | –
COc1ccc2c(c1)c(CC(=O)NCCCNC(=O)c1ccc(C(=O)[O-])c(C3=c4cc5c6c(c4Oc4c3cc3c7c4CCCN7CCC3)CCC[N+]=6CCC5)c1)c(C)n2C(=O)c1ccc(Cl)cc1 [Compound 27yy] | > 25 | > 25 | –
Cc1ccc(-c2cc(CCC(=O)O)nn2-c2ccc(S(C)(=O)=O)cc2)cc1 [Compound 29e] | – | – | IC50 [2, 5]: > 25 µM

More lines, main results first:

IC50 ([1]; Table 3) [µM] | IC50 [2, 3] [µM] | SMILES | other results
> 25 | 3.9 | COc1ccc2c(c1)c(CC(=O)NCCCNC(=O)c1ccc(C(=O)[O-])c(-c3c4ccc(=[N+](C)C)cc-4oc4cc(N(C)C)ccc34)c1)c(C)n2C(=O)c1ccc(Cl)cc1 [Compound 27aaa] | –
0.214 | 0.134 | COc1ccc2c(c1)c(CC(=O)NCCCNS(=O)(=O)c1ccc(/N=N/c3ccc(N(C)C)cc3)cc1)c(C)n2C(=O)c1ccc(Cl)cc1 [Compound 27bb] | –
> 25 | > 25 | COc1ccc2c(c1)c(CC(=O)NCCCN1CCN(CCCNC(=O)c3ccc(C(=O)[O-])c(C4=c5cc6c7c(c5Oc5c4cc4c8c5CCCN8CCC4)CCC[N+]=7CCC6)c3)CC1)c(C)n2C(=O)c1ccc(Cl)cc1 [Compound 27bbb] | –
> 25 | > 25 | COc1ccc2c(c1)c(CC(=O)NCCN1CCN(C(=O)c3ccc(C(=O)[O-])c(C4=c5cc6c7c(c5Oc5c4cc4c8c5CCCN8CCC4)CCC[N+]=7CCC6)c3)CC1)c(C)n2C(=O)c1ccc(Cl)cc1 [Compound 27ccc] | –
> 25 | > 25 | COc1ccc2c(CC(=O)NCCNC(=O)Cc3c(C)n(C(=O)c4ccc(Cl)cc4)c4ccc(OC)cc34)cc(=O)oc2c1 [Compound 27dd] | –
1.8 | > 25 | COc1ccc2c(c1)c(CC(=O)N1CCNCC1)c(C)n2C(=O)c1ccc(Cl)cc1 [Compound 27ddd] | –
> 25 | 0.6 | COc1ccc2c(c1)c(CC(=O)NCCCNC(=O)c1cc3ccccc3oc1=O)c(C)n2C(=O)c1ccc(Cl)cc1 [Compound 27ee] | –
> 25 | 0.031 | CCN(CC)c1ccc2cc(C(=O)NCCCCNC(=O)Cc3c(C)n(C(=O)c4ccc(Cl)cc4)c4ccc(OC)cc34)c(=O)oc2c1 [Compound 27ff] | –
> 25 | > 25 | COc1ccc2c(c1)c(CC(=O)N1CCN(C(=O)c3ccc(C(=O)[O-])c(C4=c5cc6c7c(c5Oc5c4cc4c8c5CCCN8CCC4)CCC[N+]=7CCC6)c3)CC1)c(C)n2C(=O)c1ccc(Cl)cc1 [Compound 27fff] | –
> 25 | 0.053 | CCN(CC)c1ccc2cc(C(=O)NCCCNC(=O)Cc3c(C)n(C(=O)c4ccc(Cl)cc4)c4ccc(OC)cc34)c(=O)oc2c1 [Compound 27gg] | –
0.5 | 2.8 | COc1ccc2c(c1)c(CC(=O)NCCNC(=O)c1ccc(C3=c4cc5c6c(c4Oc4c3cc3c7c4CCCN7CCC3)CCC[N+]=6CCC5)c(C(=O)[O-])c1)c(C)n2C(=O)c1ccc(Cl)cc1 [Compound 27ggg] | –
> 25 | 0.51 | COc1ccc2c(c1)c(CC(=O)NCCNC(=O)/C=C/c1ccc(N(C)C)cc1)c(C)n2C(=O)c1ccc(Cl)cc1 [Compound 27hh] | –
5.8 | 1.3 | COc1ccc2c(c1)c(CC(=O)N1CCN(C(=O)c3ccc(C4=c5cc6c7c(c5Oc5c4cc4c8c5CCCN8CCC4)CCC[N+]=7CCC6)c(C(=O)[O-])c3)CC1)c(C)n2C(=O)c1ccc(Cl)cc1 [Compound 27hhh] | –
5.35 | > 25 | COc1ccc2c(c1)c(CC(=O)NCCNC(=S)Nc1ccc(-c3c4ccc(=O)cc-4oc4cc(O)ccc34)c(C(=O)O)c1)c(C)n2C(=O)c1ccc(Cl)cc1 [Compound 27jj] | –
> 25 | > 25 | COc1ccc2c(c1)c(CC(=O)NCCCNC(=S)Nc1ccc(-c3c4ccc(=O)cc-4oc4cc(O)ccc34)c(C(=O)O)c1)c(C)n2C(=O)c1ccc(Cl)cc1 [Compound 27kk] | –
> 25 | 3.1 | COc1ccc2c(c1)c(CC(=O)NCCCCNC(=S)Nc1ccc(-c3c4ccc(=O)cc-4oc4cc(O)ccc34)c(C(=O)O)c1)c(C)n2C(=O)c1ccc(Cl)cc1 [Compound 27ll] | –
> 25 | > 25 | CCN(CC)c1ccc2c(-c3ccc(S(=O)(=O)NCCCCNC(=O)Cc4c(C)n(C(=O)c5ccc(Cl)cc5)c5ccc(OC)cc45)cc3S(=O)(=O)[O-])c3ccc(=[N+](CC)CC)cc-3oc2c1 [Compound 27lll] | –
22.5 | 3.2 | COc1ccc2c(c1)c(CC(=O)NCCCCNC(=O)c1ccc(C(=O)O)c(-c3c4cc(F)c(=O)cc-4oc4cc(O)c(F)cc34)c1)c(C)n2C(=O)c1ccc(Cl)cc1 [Compound 27mm] | –
